{"source": "patent US20210310069A1", "about": "“METHODS FOR DETERMINING GENE-ALPHA TOCOPHEROL INTERACTIONS” (BodySync. Inc., priority 2009, published 2021)", "key": {"[1]": {"test": "Fasting plasma alpha-tocopherol by fluorimetry in healthy men supplemented with αT for six weeks", "assay_type": "in vivo, human", "details": "for fasting plasma αT mean: 6-weeks", "excerpt": "(§1) Healthy middle-aged male volunteers (mean age 52.7±10 years; median years) were given dietary supplements of either […] (moderate dose), or […] (high dose) RRR-α tocopherol per day for six weeks. Subject numbers in each group were 57 and 102 respectively. All research participants gave written informed consent to take part. The study protocol was approved by the Southampton University Hospitals Trust Clinical Ethics Committee authorized the research protocol. Study participants continued with their normal diets while receiving the supplements. Subjects continued with their normal daily activities while on the study but visited the Wellcome Trust Clinical Research Facility at Southampton University Hospital Trust, after an overnight fast, at the beginning and end of the supplementation period. At the visit weight, height, and waist and hip circumference were measured, and blood samples taken for the measurement of cytokines.\n(§2) Alpha-tocopherol in plasma was determined using fluorimetry according to methods described elsewhere (11). The limit of detection for αT was 7.2 pmol/L. Peripheral blood mononuclear cells (PBMCs) were prepared from heparinized whole blood samples using Leucosep sterile centrifuge tubes (Greiner Bio-one, Germany) and Histopaque gradient solution (Sigma-Aldrich Inc, MO, USA) and cultured in the presence of Lipopolysaccharide (LPS) (Sigma-Aldrich Inc, MO, USA) for 24h after which time the supernatants were removed and stored. Interleukin-6 (IL-6), tumor necrosis factor (TNF) and interleukin-1β (IL-1β) protein levels were quantitatively measured by the BD CBA Human Inflammation Kit (BD Bioscience, San Jose, Calif., USA). The operations were performed according to the manufacturer's instructions. The intensity of the fluorescence signal was acquired on a fluorescence activated cell sorter (FACS) flow cytometer (BD Becton-Dickinson), and analyzed using CBA software. The concentration range for detection using this assay is 20-5000 pg/ml for each of the proteins."}, "TNFα": {"tested_on": "TNFα", "test": "TNFα level of LPS-cultured PBMCs (BD CBA Human Inflammation Kit) from healthy men after 6 weeks of αT supplementation", "assay_type": "in vivo", "details": "for PMBC cytokine levels TNFα mean: 6-weeks", "excerpt": "as §1, §2\n(§3) A linear regression was carried out where the outcome variable was Log(DeltaCk+minDeltaCk) Where Ck stands for IL-1, IL-6 or TNF-alpha. And DeltaCk=Followup-Baseline serum cytokine levels, and minDelta the most negative DeltaCk (<0) observed in the population baseline value, alpha tocopherol dose group, smoking status (age+BMI) were included as covariates."}, "IL-1": {"tested_on": "IL-1", "test": "IL-1 (IL-1β) level of LPS-cultured PBMCs (BD CBA Human Inflammation Kit) from healthy men after 6 weeks of αT supplementation", "assay_type": "in vivo", "details": "for PMBC cytokine levels IL-1 mean: 6-weeks", "excerpt": "as §1, §2, §3"}, "IL-6": {"tested_on": "IL-6", "test": "IL-6 level of LPS-cultured PBMCs (BD CBA Human Inflammation Kit) from healthy men after 6 weeks of αT supplementation", "assay_type": "in vivo", "details": "for PMBC cytokine levels IL-6 mean: 6-weeks", "excerpt": "as §1, §2, §3"}, "[2]": {"details": "subjects who took vitamin E supplements; adjusted for age, smoking status, intake of carotene and vitamin C; cited from earlier work"}}, "data": [{"molecule": "Cc1c(C)c2c(c(C)c1O)CC[C@@](C)(CCC[C@H](C)CCC[C@H](C)CCCC(C)C)O2", "note": "[αT, RRR-α tocopherol]", "values": [{"measurement": "fasting plasma αT mean", "setting": "[1]; 75 IU/d, n = 57 healthy males", "result": 22.6, "unit": "µmol/L"}, {"measurement": "fasting plasma αT mean", "setting": "[1]; 600 IU/d, n = 102 healthy males", "result": 31.3, "unit": "µmol/L"}, {"measurement": "change in plasma fasting levels of alpha-tocopherol", "setting": "[1]; both dose groups (75 and 600 IU/d), 6 weeks", "result": "increase"}, {"measurement": "PMBC cytokine levels TNFα mean", "setting": "TNFα; 75 IU/d", "result": 1.48, "unit": "ng/L"}, {"measurement": "PMBC cytokine levels TNFα mean", "setting": "TNFα; 600 IU/d", "result": 1.31, "unit": "ng/L"}, {"measurement": "change in TNFα by genotype", "setting": "TNFα; GA genotype at TNF-238, 6 weeks, p<0.016 after correcting for multiple tests", "result": "decrease"}, {"measurement": "change in serum levels of TNFα", "setting": "TNFα; both treatment groups, 6 weeks", "result": "increase"}, {"measurement": "change in serum levels of TNFα by genotype", "setting": "TNFα; genotypes AG and AA for IL10-1082 SNP and GG for TNF-238 SNP, 6 weeks", "result": "increase"}, {"measurement": "increase in TNFα after supplementation", "setting": "TNFα; low-dose group (75 IU/d), 6 weeks, p<0.011 after adjusting for age, baseline levels, smoking status and BMI", "result": 40.5, "unit": "%"}, {"measurement": "PMBC cytokine levels IL-1 mean", "setting": "IL-1; 75 IU/d", "result": 7.38, "unit": "ng/L"}, {"measurement": "PMBC cytokine levels IL-1 mean", "setting": "IL-1; 600 IU/d", "result": 6.93, "unit": "ng/L"}, {"measurement": "change in IL1 levels by genotype", "setting": "IL-1; GG carriers at IL10-1082, 6 weeks", "result": "lower increase"}, {"measurement": "change in IL-1 levels by genotype", "setting": "IL-1; GG genotype at GSTP1 313, 6 weeks, not significant after FDR correction", "result": "decrease"}, {"measurement": "change in serum levels of IL-1", "setting": "IL-1; both treatment groups, 6 weeks", "result": "increase"}, {"measurement": "change in IL1 levels by genotype", "setting": "IL-1; common genotypes at IL10-592 (CC) and IL10-819, 6 weeks", "result": "lower increase"}, {"measurement": "PMBC cytokine levels IL-6 mean", "setting": "IL-6; 75 IU/d", "result": 18.71, "unit": "ng/L"}, {"measurement": "PMBC cytokine levels IL-6 mean", "setting": "IL-6; 600 IU/d", "result": 16.73, "unit": "ng/L"}, {"measurement": "change in IL-6 serum levels by genotype", "setting": "IL-6; GSTP1 313 AG and GG carriers (so in the source), 6 weeks", "result": "increase"}, {"measurement": "change in IL-6 levels by genotype", "setting": "IL-6; SOD-28 TT versus CT and CC variants, 6 weeks, not significant after adjusting for multiple tests", "result": "lower increase"}, {"measurement": "change in serum levels of IL-6", "setting": "IL-6; both treatment groups, 6 weeks", "result": "increase"}, {"measurement": "change in IL-6 levels by genotype", "setting": "IL-6; variant homozygotes GSTP1 313 (GG), 6 weeks, p<0.019", "result": "decreased levels"}]}, {"molecule": "vitamin E", "values": [{"measurement": "reduction of major coronary heart disease", "setting": "[2]", "result": 30, "unit": "%"}]}]}
